{"source": "patent US20080009418A1", "about": "“Selective Inhibitors” (Alchemia LTD., priority 2004, published 2008)", "key": {"[1]": {"molecular_target": "T1, Human opioid (ORL1) (Homo sapiens, UniProt P41146)", "T1 construct": "purchased Perkin Elmer Biosignal", "T1 sequence (P41146 whole entry)": "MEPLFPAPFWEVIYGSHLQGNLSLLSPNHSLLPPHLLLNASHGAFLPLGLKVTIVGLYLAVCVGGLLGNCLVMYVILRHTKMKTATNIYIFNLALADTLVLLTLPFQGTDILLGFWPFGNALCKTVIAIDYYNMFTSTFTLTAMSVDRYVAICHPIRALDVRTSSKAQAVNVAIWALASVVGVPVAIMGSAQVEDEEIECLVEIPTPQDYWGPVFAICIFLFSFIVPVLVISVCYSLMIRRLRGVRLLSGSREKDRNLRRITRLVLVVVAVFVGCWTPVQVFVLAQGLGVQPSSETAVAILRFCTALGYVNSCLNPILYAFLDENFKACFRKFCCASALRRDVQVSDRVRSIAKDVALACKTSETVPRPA", "assay": "Radioligand binding, human opioid ORL1 membranes, FlashPlate, [125I]-Nociceptin", "conditions": "compound at 10 μM, [125I]-Nociceptin", "method_in_brief": "(§1)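 Cloned human receptor membranes were coated onto FlashPlate wells and incubated with radioligand and compound (added from a 0.5 mM DMSO daughter plate) for 1 hour at room temperature in the dark. Scintillation counting gave percent inhibition, with DMSO defining total and reference ligand defining non-specific binding.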"}, "[2]": {"molecular_target": "T2, Human Melanocortin (MC4) (Homo sapiens, UniProt P32245)", "T2 construct": "purchased Perkin Elmer Biosignal", "T2 sequence (P32245 whole entry)": "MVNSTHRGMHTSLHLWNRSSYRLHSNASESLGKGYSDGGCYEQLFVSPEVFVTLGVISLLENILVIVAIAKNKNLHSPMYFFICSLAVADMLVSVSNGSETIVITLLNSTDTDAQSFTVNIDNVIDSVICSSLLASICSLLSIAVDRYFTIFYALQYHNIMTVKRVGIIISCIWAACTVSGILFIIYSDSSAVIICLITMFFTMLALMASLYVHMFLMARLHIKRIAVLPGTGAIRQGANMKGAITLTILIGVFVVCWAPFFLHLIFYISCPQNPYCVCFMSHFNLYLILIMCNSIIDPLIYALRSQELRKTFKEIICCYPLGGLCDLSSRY", "assay": "Radioligand binding, human melanocortin MC4 membranes, FlashPlate, [125I]-NDP-αMSH", "conditions": "compound at 10 μM, [125I]-NDP-αMSH", "method_in_brief": "as §1"}, "[3]": {"molecular_target": "T3, Human μ-opioid (MOP) (Homo sapiens, UniProt P35372)", "T3 construct": "purchased Perkin Elmer Biosignal", "T3 sequence (P35372 whole entry)": "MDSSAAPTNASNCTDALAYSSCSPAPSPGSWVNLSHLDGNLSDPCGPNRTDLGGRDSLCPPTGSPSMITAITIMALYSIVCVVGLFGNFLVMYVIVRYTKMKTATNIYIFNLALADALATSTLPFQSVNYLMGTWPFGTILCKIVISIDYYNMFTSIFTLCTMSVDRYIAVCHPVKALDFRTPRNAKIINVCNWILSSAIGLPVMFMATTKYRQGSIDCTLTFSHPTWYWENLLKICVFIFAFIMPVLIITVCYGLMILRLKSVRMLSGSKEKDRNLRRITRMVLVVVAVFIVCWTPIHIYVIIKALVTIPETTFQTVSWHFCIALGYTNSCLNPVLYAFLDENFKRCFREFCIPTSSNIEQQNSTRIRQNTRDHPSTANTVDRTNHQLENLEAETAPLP", "assay": "Radioligand binding, human μ-opioid (MOP) membranes, FlashPlate, [3H]-Naloxone", "conditions": "compound at 10 μM, [3H]-Naloxone", "method_in_brief": "as §1"}, "[4]": {"molecular_target": "T4, Human δ-opioid (DOP) (Homo sapiens, UniProt P41143)", "T4 construct": "purchased Perkin Elmer Biosignal", "T4 sequence (P41143 whole entry)": "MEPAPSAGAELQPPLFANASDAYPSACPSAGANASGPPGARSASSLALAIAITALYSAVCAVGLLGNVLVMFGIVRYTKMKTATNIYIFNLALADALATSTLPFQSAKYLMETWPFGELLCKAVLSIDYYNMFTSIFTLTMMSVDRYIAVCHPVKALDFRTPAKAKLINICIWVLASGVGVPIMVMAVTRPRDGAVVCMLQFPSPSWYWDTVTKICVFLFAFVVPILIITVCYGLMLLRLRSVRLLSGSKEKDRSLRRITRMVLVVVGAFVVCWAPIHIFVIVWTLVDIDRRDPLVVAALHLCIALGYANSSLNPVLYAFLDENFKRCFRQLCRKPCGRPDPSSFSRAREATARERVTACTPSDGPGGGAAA", "assay": "Radioligand binding, human δ-opioid (DOP) membranes, FlashPlate, [3H]-Bremazocine", "conditions": "compound at 10 μM, [3H]-Bremazocine", "method_in_brief": "as §1"}, "[5]": {"molecular_target": "T5, Human neurokinin (NK1) (Homo sapiens, UniProt P25103)", "T5 construct": "purchased Perkin Elmer Biosignal", "T5 sequence (P25103 whole entry)": "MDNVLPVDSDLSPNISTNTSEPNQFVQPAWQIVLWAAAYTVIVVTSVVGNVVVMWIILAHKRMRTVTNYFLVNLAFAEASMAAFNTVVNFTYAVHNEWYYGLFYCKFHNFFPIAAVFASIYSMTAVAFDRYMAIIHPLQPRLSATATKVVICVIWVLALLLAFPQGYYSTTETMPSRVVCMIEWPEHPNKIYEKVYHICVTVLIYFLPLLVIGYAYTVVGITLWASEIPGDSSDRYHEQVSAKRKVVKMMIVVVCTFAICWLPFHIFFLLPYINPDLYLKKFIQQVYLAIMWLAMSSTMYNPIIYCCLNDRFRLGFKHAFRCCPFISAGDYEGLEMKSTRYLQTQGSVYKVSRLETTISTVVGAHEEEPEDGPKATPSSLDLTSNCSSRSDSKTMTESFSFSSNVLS", "assay": "Radioligand binding, human neurokinin NK1 membranes, filtration, [125I]-Substance P", "conditions": "compound at 10 μM, [125I]-Substance P", "method_in_brief": "(§2)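 Percent inhibition of radioligand binding measured on recombinant human membranes: NK1 with [125I]-Substance P, KOP with [3H]-Diprenorphine. Incubation 1 h at room temperature, then harvest onto 0.3% PEI-soaked filters, cold Tris-HCl pH 7.4 washes and scintillation counting; non-specific binding from reference ligand wells.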"}, "[6]": {"molecular_target": "T6, Human melanin-concentrating hormone (MCH1) (Homo sapiens, UniProt Q99705)", "T6 construct": "purchased Perkin Elmer Biosignal", "T6 sequence (Q99705 whole entry)": "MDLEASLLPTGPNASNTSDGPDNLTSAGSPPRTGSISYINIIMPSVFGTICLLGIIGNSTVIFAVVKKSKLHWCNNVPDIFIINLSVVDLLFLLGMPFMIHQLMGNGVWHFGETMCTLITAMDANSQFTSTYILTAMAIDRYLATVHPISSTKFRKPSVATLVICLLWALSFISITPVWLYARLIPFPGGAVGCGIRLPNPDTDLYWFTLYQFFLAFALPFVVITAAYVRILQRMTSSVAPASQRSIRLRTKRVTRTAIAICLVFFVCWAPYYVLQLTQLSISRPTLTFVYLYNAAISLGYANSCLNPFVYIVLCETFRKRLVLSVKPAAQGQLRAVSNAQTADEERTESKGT", "assay": "Radioligand binding, human melanin-concentrating hormone MCH1 membranes, FlashPlate, [125I]-S36057", "conditions": "compound at 10 μM", "method_in_brief": "as §1"}, "[7]": {"molecular_target": "T7, Human Melanocortin (MC3) (Homo sapiens, UniProt P41968)", "T7 construct": "purchased Perkin Elmer Biosignal", "T7 sequence (P41968 whole entry)": "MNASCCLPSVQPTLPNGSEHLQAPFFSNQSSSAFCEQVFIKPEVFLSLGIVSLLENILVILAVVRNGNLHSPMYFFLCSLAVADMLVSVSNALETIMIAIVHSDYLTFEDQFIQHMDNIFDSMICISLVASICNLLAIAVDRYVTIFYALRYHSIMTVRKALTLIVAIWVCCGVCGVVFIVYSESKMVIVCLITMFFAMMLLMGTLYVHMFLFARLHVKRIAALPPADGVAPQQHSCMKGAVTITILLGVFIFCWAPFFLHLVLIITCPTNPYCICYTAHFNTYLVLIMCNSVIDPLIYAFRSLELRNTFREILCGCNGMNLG", "assay": "Radioligand binding, human melanocortin MC3 membranes, FlashPlate, [125I]-NDP-αMSH", "conditions": "compound at 10 μM, [125I]-NDP-αMSH", "method_in_brief": "as §1"}, "[8]": {"molecular_target": "T8, Mouse urotensin (mUR2) (Mus musculus, UniProt Q8VIH9)", "T8 construct": "purchased Perkin Elmer Biosignal", "T8 sequence (Q8VIH9 1-385)": "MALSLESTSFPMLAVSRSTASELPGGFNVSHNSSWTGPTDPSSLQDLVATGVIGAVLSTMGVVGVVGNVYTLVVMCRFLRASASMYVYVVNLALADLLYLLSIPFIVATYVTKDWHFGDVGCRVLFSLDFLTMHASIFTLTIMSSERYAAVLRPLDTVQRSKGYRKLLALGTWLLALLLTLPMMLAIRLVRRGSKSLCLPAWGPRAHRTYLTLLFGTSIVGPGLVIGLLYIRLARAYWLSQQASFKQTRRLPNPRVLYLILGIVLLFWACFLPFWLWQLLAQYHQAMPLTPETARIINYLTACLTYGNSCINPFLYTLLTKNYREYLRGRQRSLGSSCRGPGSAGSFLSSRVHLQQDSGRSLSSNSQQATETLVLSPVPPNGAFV", "assay": "Radioligand binding, mouse urotensin mUR2 membranes, FlashPlate, [125I]-Urotensin II", "conditions": "compound at 10 μM, [125I]-Urotensin II", "method_in_brief": "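Cloned mouse urotensin (mUR2) receptor membranes from Perkin Elmer Biosignal were immobilized in FlashPlate microplates using a proprietary coating. Each well got 19.5 μl buffer, then 0.5 μl of DMSO, reference ligand, or compound. Adding 5 μl of [125I]-Urotensin II, diluted to 5× final concentration in binding buffer, started binding. Plates were sealed with TopSeal-A and incubated 1 hour at room temperature in the dark. Wells were counted for 30 seconds each on a TopCount after a 60-second delay, and percentage inhibition was calculated.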"}, "[9]": {"molecular_target": "T9, Human melanocortin (MC5) (Homo sapiens, UniProt P33032)", "T9 construct": "purchased Perkin Elmer Biosignal", "T9 sequence (P33032 whole entry)": "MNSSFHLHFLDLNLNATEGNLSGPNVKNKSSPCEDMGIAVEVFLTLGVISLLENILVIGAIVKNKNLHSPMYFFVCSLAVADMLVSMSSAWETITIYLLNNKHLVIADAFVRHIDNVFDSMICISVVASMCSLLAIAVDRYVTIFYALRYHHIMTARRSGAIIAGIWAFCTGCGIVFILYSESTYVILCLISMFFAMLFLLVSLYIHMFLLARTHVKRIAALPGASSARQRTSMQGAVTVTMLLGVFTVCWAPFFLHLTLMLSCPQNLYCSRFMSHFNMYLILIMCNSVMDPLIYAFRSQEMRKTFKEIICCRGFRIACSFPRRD", "assay": "Radioligand binding, human melanocortin MC5 membranes, FlashPlate, [125I]-NDP-αMSH", "conditions": "compound at 10 μM, [125I]-NDP-αMSH", "method_in_brief": "as §1"}, "[10]": {"molecular_target": "T10, Human κ-Opioid (KOP) (Homo sapiens, UniProt P41145)", "T10 construct": "purchased Perkin Elmer Biosignal", "T10 sequence (P41145 whole entry)": "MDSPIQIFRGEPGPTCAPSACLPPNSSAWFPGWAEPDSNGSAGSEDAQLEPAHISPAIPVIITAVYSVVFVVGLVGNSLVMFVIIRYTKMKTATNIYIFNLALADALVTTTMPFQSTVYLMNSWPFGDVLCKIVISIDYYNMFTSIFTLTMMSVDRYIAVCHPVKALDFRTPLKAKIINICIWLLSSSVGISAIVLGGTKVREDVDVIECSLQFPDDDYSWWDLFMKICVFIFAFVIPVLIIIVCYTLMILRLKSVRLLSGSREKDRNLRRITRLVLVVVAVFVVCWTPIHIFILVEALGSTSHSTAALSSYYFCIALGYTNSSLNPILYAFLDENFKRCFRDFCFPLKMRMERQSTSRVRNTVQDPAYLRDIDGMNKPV", "assay": "Radioligand binding, human κ-opioid (KOP) membranes, filtration, [3H]-Diprenorphine", "conditions": "compound at 10 μM, [3H]-Diprenorphine", "method_in_brief": "as §2"}, "[11]": {"molecular_target": "T11, Human neuropeptide Y (NPY-Y1) (Homo sapiens, UniProt P25929)", "T11 construct": "purchased Perkin Elmer Biosignal", "T11 sequence (P25929 1-384)": "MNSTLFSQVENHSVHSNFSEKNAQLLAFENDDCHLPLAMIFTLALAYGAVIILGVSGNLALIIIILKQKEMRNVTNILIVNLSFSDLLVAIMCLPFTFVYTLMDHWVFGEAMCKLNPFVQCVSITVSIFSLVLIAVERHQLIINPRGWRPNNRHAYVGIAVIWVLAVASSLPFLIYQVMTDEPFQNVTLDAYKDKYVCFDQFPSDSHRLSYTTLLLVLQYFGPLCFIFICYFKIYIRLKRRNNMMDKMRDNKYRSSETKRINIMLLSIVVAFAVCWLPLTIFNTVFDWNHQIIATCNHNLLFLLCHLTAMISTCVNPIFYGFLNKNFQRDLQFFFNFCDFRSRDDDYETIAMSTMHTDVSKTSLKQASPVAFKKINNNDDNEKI", "assay": "Radioligand binding, human neuropeptide Y NPY-Y1 membranes, FlashPlate, [125I]-PYY", "conditions": "compound at 10 μM, [125I]-PYY", "method_in_brief": "as §1"}}}
{"smiles": "NCCC(=O)N[C@H]1C(OCc2ccc3ccccc3c2)O[C@H](COCc2ccc3ccccc3c2)[C@@H](O)[C@@H]1OCc1ccc(Cl)cc1", "note": "(stereo partly drawn) [compound 436]", "values": [{"measurement": "A10: inhibition of radioligand binding", "setting": "[1]; human ORL1 membranes", "value": "− (“−” indicates less than 50% inhibition at 10 μM)"}, {"measurement": "A4: inhibition of radioligand binding", "setting": "[2]; human MC4 membranes", "value": "+ (“+” indicates greater than 50% inhibition at 10 μM)"}, {"measurement": "A7: inhibition of radioligand binding", "setting": "[3]; human MOP membranes", "value": "− (“−” indicates less than 50% inhibition at 10 μM)"}, {"measurement": "A1: inhibition of radioligand binding", "setting": "[4]; human DOP membranes", "value": "− (“−” indicates less than 50% inhibition at 10 μM)"}, {"measurement": "A8: inhibition of radioligand binding", "setting": "[5]; human NK1 membranes", "value": "+ (“+” indicates greater than 50% inhibition at 10 μM)"}, {"measurement": "A6: inhibition of radioligand binding", "setting": "[6]; [125I]-S36057, human MCH1 membranes", "value": "+ (“+” indicates greater than 50% inhibition at 10 μM)"}, {"measurement": "A3: inhibition of radioligand binding", "setting": "[7]; human MC3 membranes", "value": "+ (“+” indicates greater than 50% inhibition at 10 μM)"}, {"measurement": "A11: inhibition of radioligand binding", "setting": "[8]; mouse mUR2 membranes", "value": "− (“−” indicates less than 50% inhibition at 10 μM)"}, {"measurement": "A5: inhibition of radioligand binding", "setting": "[9]; human MC5 membranes", "value": "+ (“+” indicates greater than 50% inhibition at 10 μM)"}, {"measurement": "A2: inhibition of radioligand binding", "setting": "[10]; human KOP membranes", "value": "− (“−” indicates less than 50% inhibition at 10 μM)"}, {"measurement": "A9: inhibition of radioligand binding", "setting": "[11]; human NPY-Y1 membranes", "value": "− (“−” indicates less than 50% inhibition at 10 μM)"}]}
{"smiles": "NCCC(=O)NC1O[C@H](CO)[C@@H](O)[C@H](OCc2cccc3ccccc23)[C@H]1NC(=O)c1ccccc1", "note": "(stereo partly drawn) [compound 358]", "values": [{"measurement": "A10: inhibition of radioligand binding, human opioid (ORL1)", "setting": "[1]", "value": "− (“−” indicates less than 50% inhibition at 10 μM)"}, {"measurement": "A4: inhibition of radioligand binding, human melanocortin (MC4)", "setting": "[2]", "value": "− (“−” indicates less than 50% inhibition at 10 μM)"}, {"measurement": "A7: inhibition of radioligand binding, human μ-opioid (MOP)", "setting": "[3]", "value": "− (“−” indicates less than 50% inhibition at 10 μM)"}, {"measurement": "A1: inhibition of radioligand binding, human δ-opioid (DOP)", "setting": "[4]", "value": "− (“−” indicates less than 50% inhibition at 10 μM)"}, {"measurement": "A8: inhibition of radioligand binding, human neurokinin (NK1)", "setting": "[5]", "value": "− (“−” indicates less than 50% inhibition at 10 μM)"}, {"measurement": "A6: inhibition of radioligand binding, human melanin-concentrating hormone (MCH1)", "setting": "[6]; [125I]-S36057", "value": "− (“−” indicates less than 50% inhibition at 10 μM)"}, {"measurement": "A3: inhibition of radioligand binding, human melanocortin (MC3)", "setting": "[7]", "value": "− (“−” indicates less than 50% inhibition at 10 μM)"}, {"measurement": "A11: inhibition of radioligand binding, mouse urotensin (mUR2)", "setting": "[8]", "value": "− (“−” indicates less than 50% inhibition at 10 μM)"}, {"measurement": "A5: inhibition of radioligand binding, human melanocortin (MC5)", "setting": "[9]", "value": "− (“−” indicates less than 50% inhibition at 10 μM)"}, {"measurement": "A2: inhibition of radioligand binding, human κ-opioid (KOP)", "setting": "[10]", "value": "− (“−” indicates less than 50% inhibition at 10 μM)"}, {"measurement": "A9: inhibition of radioligand binding, human neuropeptide Y (NPY-Y1)", "setting": "[11]", "value": "+ (“+” indicates greater than 50% inhibition at 10 μM)"}]}
{"smiles": "COCC1OC(OCc2ccc3ccccc3c2)C(NC(=O)CCN)C(OCc2ccccc2)C1O", "note": "(stereo not drawn) [compound 231]", "values": [{"measurement": "A10: inhibition of radioligand binding", "setting": "[1]; FlashPlate", "value": "− (“−” indicates less than 50% inhibition at 10 μM)"}, {"measurement": "A4: inhibition of radioligand binding", "setting": "[2]; FlashPlate", "value": "− (“−” indicates less than 50% inhibition at 10 μM)"}, {"measurement": "A7: inhibition of radioligand binding", "setting": "[3]; FlashPlate", "value": "− (“−” indicates less than 50% inhibition at 10 μM)"}, {"measurement": "A1: inhibition of radioligand binding", "setting": "[4]; FlashPlate", "value": "− (“−” indicates less than 50% inhibition at 10 μM)"}, {"measurement": "A8: inhibition of radioligand binding", "setting": "[5]; filtration", "value": "+ (“+” indicates greater than 50% inhibition at 10 μM)"}, {"measurement": "A6: inhibition of radioligand binding", "setting": "[6]; [125I]-S36057, FlashPlate", "value": "− (“−” indicates less than 50% inhibition at 10 μM)"}, {"measurement": "A3: inhibition of radioligand binding", "setting": "[7]; FlashPlate", "value": "− (“−” indicates less than 50% inhibition at 10 μM)"}, {"measurement": "A11: inhibition of radioligand binding", "setting": "[8]; FlashPlate", "value": "− (“−” indicates less than 50% inhibition at 10 μM)"}, {"measurement": "A5: inhibition of radioligand binding", "setting": "[9]; FlashPlate", "value": "− (“−” indicates less than 50% inhibition at 10 μM)"}, {"measurement": "A2: inhibition of radioligand binding", "setting": "[10]; filtration", "value": "− (“−” indicates less than 50% inhibition at 10 μM)"}, {"measurement": "A9: inhibition of radioligand binding", "setting": "[11]; FlashPlate", "value": "− (“−” indicates less than 50% inhibition at 10 μM)"}]}
